Measured values: patent EP4238553A1, “COMPOSITIONS AND METHODS FOR DELIVERING CLOFOCTOL” (priority 2022, dated 2023)
Converted amounts (≈) assume the structure as drawn.

Assays:
[1] = characterization of aerosol particles by laser light scattering (Malvern Mastersizer X); type: physicochemical; settings: air flow 20L/min
Description: The "median diameter" (D(v;0.5)) of an aerosol refers to the diameter for which half the particulate mass of the aerosol consists of particles with a diameter larger than the median diameter and half by particles with a diameter smaller than the median diameter. The median diameter is measured by laser light scattering using for example a Malvern Mastersizer X or any equivalent apparatus working on the same principle of laser light scattering.
The "span" of a volume-based size distribution is defined by Span = (D(v;0.9) - D(v;0.1)) / D(v;0.5) and gives an indication of how far the 10 percent and 90 percent points are apart, normalized by the midpoint.
The "volume concentration" is the volume of particles reported to the total volume of the aerosol expressed as a percentage. The volume concentration is measured by laser light scattering using for example a Malvern Mastersizer X or any equivalent apparatus working on the same principle of laser light scattering.
Solutions containing 10 mg/g or 20 mg/g of clofoctol in various solvents were prepared. Aerosols were produced using a TAG (Vaporesso swag 2 with a coil resistance of 0.3 ohms) at different powers. The flow of aerosol was generated using an air flow of 20L/min. A certain volume of emitted aerosol was passed through the laser beam of a granulometer, Mastersizer X from Malvern.

[2] = aerosol drug mass density (TAG aerosol trapped on filter, LC-MS); type: physicochemical; settings: airflow 34 L per minute; for Collected mass of clofoctol in the trap: 1.416 L aerosol trapped
Description: The term "aerosol" refers to a suspension of fine solid particles or liquid droplets in a gas. The expression "(aerosol) drug mass density" refers to the mass of clofoctol per unit volume of aerosol. It is calculated by measuring the quantity of clofoctol in a determined volume of aerosol beforehand trapped.
(§1) The purity of a clofoctol-containing aerosol, and quantitation of clofoctol in this aerosol was determined using a method that involves forming the aerosol in a device through which an air flow is maintained, generally at a rate between 1 and 180 L/min. The gas flow carries the aerosol into one or more traps. After extraction from the trap, the trapped components from the aerosol are subjected to an analytical technique, such as liquid chromatography, that permits a determination of composition and purity. The liquid chromatography discussed above contains a detection system (i.e., detector). Such detection systems are well known in the art and include, for example, UV detectors and mass spectrometry detectors. Liquid chromatography-mass spectrometry is the preferred analytical technique.
Solutions containing 20 mg/g of clofoctol in various solvents were prepared. Aerosols were produced using a TAG (Vaporesso swag 2 with a coil resistance of 0.3 ohms) at different powers and an airflow of 34 L per minute. 1.416 L of emitted aerosol was trapped on a plastic filter. Clofoctol was then extracted from the filter and dosed by LC-MS to determine the drug mass density.

physchem = type: physicochemical; settings: for solubility at 48 h / solubility at 120 h: organic solvent or mixture
Description: Solutions of clofoctol were prepared in different solvents: 100% PG, 85/15 PG/Gly, 70/30 PG/Gly, 50/50 PG/Gly. Solutions were sonicated then incubated at 65°C for 30 min, until complete dissolution of clofoctol. Then, the samples were incubated at RT under stirring for different times. For collection before analysis after determined incubation times, the solutions were centrifuged, then the supernatants were collected and diluted before LC-MS/MS analysis for clofoctol quantitation in samples.

in vivo = experiment: in vivo; set-up: species or system Mice; settings: mouse, inhaled or intranasal
Description: Mice (Charles River, Female CD-1, 20-23 g) were permitted water and food ad libitum during the experiment. Clofoctol was administrated by Nose-Only inhalation in a homemade inhalation chamber in part inspired by a previous described apparatus (ref. 6). Animals were acclimated to restraint during a week before the experiment started. Animals were exposed to an aerosol generated (using a TAG connected to the chamber: Vaporesso swag 2 with a coil resistance of 0.3 ohms) from a solution of 20 mg/g of clofoctol ([…]/Glycerin, 85/15) for a period of 15 min with a puff of 4.5 s every minute (with a power of 30W).
Blood and lungs (left lung) were sampled 5, 10, 15, 30, 60 and 120 minutes after the end of a single inhalation period (2 mice/sampling time). The blood was sampled in tubes with Lithium Heparin on ice and then the plasma was separated from the red cells by centrifugation and frozen (-80°C).
A known mass (approximately 15mg, weighed beforehand) of each lung was placed into a 'safe lock' microtube (2 mL). […]
The unknown lung concentrations of clofoctol were calculated from a calibration line produced in the same matrix (naive lung from 'vehicle' animals) and reprocessed in the same way as the samples (homogenization in ethanol).

[3] = clofoctol purity in the aerosol after thermal aerosol generation (LC-UV-MS); type: physicochemical; settings: for Mean purity: mean of puffs 1 and 2
Description: as §1
Solutions containing 20 mg/g of clofoctol in various solvents were prepared. Aerosols were produced using a TAG (Vaporesso swag 2 with a coil resistance of 0.3 ohms) at different powers. The flow of aerosol was generated using an air flow of 20 L/min. One or two successive puffs of 2.5s each was (were) done for each condition. For each puff, a certain volume of emitted aerosol was trapped on a plastic filter. Clofoctol was then extracted from the filter and analysed by LC-UV-MS.

[4] = aerosol from 10 mg/g CFT in 85/15 PG/Gly, power 30 W
[5] = aerosol from 10 mg/g CFT in 85/15 PG/Gly, power 45 W
[6] = aerosol from 10 mg/g CFT in 85/15 PG/Gly, power 60 W
[7] = aerosol from 20 mg/g CFT in 70/30 PG/Gly, power 30 W
[8] = aerosol from 20 mg/g CFT in 85/15 PG/Gly, power 30 W
[9] = aerosol from 20 mg/g CFT in 100% PG, power 30 W
[10] = 20 mg/g clofoctol in 70/30 PG/Gly, TAG power 30 W
[11] = 20 mg/g clofoctol in 85/15 PG/Gly, TAG power 30 W
[12] = 20 mg/g clofoctol in 85/15 PG/Gly, TAG power 50 W
[13] = 20 mg/g clofoctol in 85/15 PG/Gly, TAG power 80 W
[14] = 20 mg/g clofoctol in 100% PG, TAG power 30 W

For `CC(C)(C)CC(C)(C)c1ccc(O)c(Cc2ccc(Cl)cc2Cl)c1` [clofoctol, 2-[(2,4-dichlorophenyl)methyl]-4-(2,4,4-trimethylpentan-2-yl)phenol], the Mean diameter [1, 4] was 2.45 µm, the Median diameter [1, 4] was 2.42 µm and the Sauter diameter [1, 4] was 2.34 µm. It also gave a Span [1, 4] of 0.519, a Volume conc. [1, 4] of 0.0052% and a Mean diameter [1, 5] of 2.40 µm. The Median diameter [1, 5] was 2.38 µm, the Sauter diameter [1, 5] was 2.30 µm and the Span [1, 5] was 0.523. It also gave a Volume conc. [1, 5] of 0.0027%, a Mean diameter [1, 6] of 2.63 µm and a Median diameter [1, 6] of 2.59 µm. For the same compound, the Sauter diameter [1, 6] was 2.46 µm, the Span [1, 6] was 0.635 and the Volume conc. [1, 6] was 0.0018%. The Mean diameter [1, 7] was 2.89 µm, the Median diameter [1, 7] was 2.87 µm and the Sauter diameter [1, 7] was 2.76 µm. The Span [1, 7] was 0.551, the Volume conc. [1, 7] was 0.0020% and the Mean diameter [1, 8] was 2.41 µm. The Median diameter [1, 8] was 2.38 µm, the Sauter diameter [1, 8] was 2.30 µm and the Span [1, 8] was 0.543. It also gave a Volume conc. [1, 8] of 0.0016%, a Mean diameter [1, 9] of 2.78 µm and a Median diameter [1, 9] of 2.75 µm. It also gave a Sauter diameter [1, 9] of 2.66 µm, a Span [1, 9] of 0.521 and a Volume conc. [1, 9] of 0.0038%. For the same compound, the Drug mass density [2, 10] was 0.091 mg/L, the “Collected mass of clofoctol in the trap” value [2, 10] was 128.3 µg and the Drug mass density [2, 11] was 0.096 mg/L. For the same compound, the “Collected mass of clofoctol in the trap” value [2, 11] was 135.8 µg, the Drug mass density [2, 12] was 0.099 mg/L and the “Collected mass of clofoctol in the trap” value [2, 12] was 141.1 µg. For the same compound, the Drug mass density [2, 13] was 0.071 mg/L, the “Collected mass of clofoctol in the trap” value [2, 13] was 100.5 µg and the Drug mass density [2, 14] was 0.159 mg/L. For the same compound, the “Collected mass of clofoctol in the trap” value [2, 14] was 225.6 µg, the solubility at 48 h (physchem; 50/50 pg/gly) was 7.9 mM (≈ 2.89 mg/mL) and the solubility at 120 h (physchem; 50/50 pg/gly) was 6.7 mM (≈ 2.45 mg/mL). The solubility at 48 h (physchem; 70/30 pg/gly) was 29.8 mM (≈ 10.9 mg/mL), the solubility at 120 h (physchem; 70/30 pg/gly) was 28.1 mM (≈ 10.3 mg/mL) and the solubility at 48 h (physchem; 85/15 pg/gly) was 504 mM (≈ 184 mg/mL). It also gave a solubility at 120 h (physchem; 85/15 pg/gly) of 147 mM (≈ 53.6 mg/mL), a solubility at 48 h (physchem; 100% pg) of 489 mM (≈ 179 mg/mL) and a solubility at 120 h (physchem; 100% pg) of 441 mM (≈ 161 mg/mL). For the same compound, the maximum concentration achieved (physchem; 7200 min) was “about 15 % by weight”, the Tmax (in vivo) was ≤ 5 min and the Mean purity ([3]; aerosol from 20 mg/g clofoctol in 70/30 PG/Gly, power 30 W) was 100.0%. The “Purity CFT” value ([3]; aerosol from 20 mg/g clofoctol in 70/30 PG/Gly, power 30 W, puff number 1) was 100.0%, the “Purity CFT” value ([3]; aerosol from 20 mg/g clofoctol in 70/30 PG/Gly, power 30 W, puff number 2) was 100.0% and the Mean purity ([3]; aerosol from 20 mg/g clofoctol in 70/30 PG/Gly, power 80 W) was 91.0%. The “Purity CFT” value ([3]; aerosol from 20 mg/g clofoctol in 70/30 PG/Gly, power 80 W, puff number 1) was 91.4%, the “Purity CFT” value ([3]; aerosol from 20 mg/g clofoctol in 70/30 PG/Gly, power 80 W, puff number 2) was 90.6% and the Mean purity ([3]; aerosol from 20 mg/g clofoctol in 100% PG, power 30 W) was 100.0%. The “Purity CFT” value ([3]; aerosol from 20 mg/g clofoctol in 100% PG, power 30 W, puff number 1) was 100.0%, the “Purity CFT” value ([3]; aerosol from 20 mg/g clofoctol in 100% PG, power 30 W, puff number 2) was 100.0% and the Mean purity ([3]; aerosol from 20 mg/g clofoctol in 100% PG, power 80 W) was 87.4%. For the same compound, the “Purity CFT” value ([3]; aerosol from 20 mg/g clofoctol in 100% PG, power 80 W, puff number 1) was 92.0% and the “Purity CFT” value ([3]; aerosol from 20 mg/g clofoctol in 100% PG, power 80 W, puff number 2) was 82.7%.
